Measured values from ChEMBL document CHEMBL1133477, “Discovery of novel p-arylthio cinnamides as antagonists of leukocyte function-associated antigen-1/intracellular adhesion molecule-1 interaction. 1. Identification of an additional binding pocket based on an anilino diaryl sulfide lead” (J Med Chem, 2000).

Tests used:
[1] = target: T1, Intercellular adhesion molecule (ICAM-1), Integrin alpha-L/beta-2 (Homo sapiens, UniProt P05107+P20701); experiment: Ability to block the interaction between integrin LFA-1 and its adhesion partner ICAM-1 in a time-resolved fluorescent LFA-1/ICAM-1 biochemical interaction assay; format: protein-complex assay
[2] = target: T1, Intercellular adhesion molecule (ICAM-1), Integrin alpha-L/beta-2; experiment: Inhibition against binding of LFA-1 to ICAM-1; format: protein-complex assay

T1 sequence (P20701 whole entry): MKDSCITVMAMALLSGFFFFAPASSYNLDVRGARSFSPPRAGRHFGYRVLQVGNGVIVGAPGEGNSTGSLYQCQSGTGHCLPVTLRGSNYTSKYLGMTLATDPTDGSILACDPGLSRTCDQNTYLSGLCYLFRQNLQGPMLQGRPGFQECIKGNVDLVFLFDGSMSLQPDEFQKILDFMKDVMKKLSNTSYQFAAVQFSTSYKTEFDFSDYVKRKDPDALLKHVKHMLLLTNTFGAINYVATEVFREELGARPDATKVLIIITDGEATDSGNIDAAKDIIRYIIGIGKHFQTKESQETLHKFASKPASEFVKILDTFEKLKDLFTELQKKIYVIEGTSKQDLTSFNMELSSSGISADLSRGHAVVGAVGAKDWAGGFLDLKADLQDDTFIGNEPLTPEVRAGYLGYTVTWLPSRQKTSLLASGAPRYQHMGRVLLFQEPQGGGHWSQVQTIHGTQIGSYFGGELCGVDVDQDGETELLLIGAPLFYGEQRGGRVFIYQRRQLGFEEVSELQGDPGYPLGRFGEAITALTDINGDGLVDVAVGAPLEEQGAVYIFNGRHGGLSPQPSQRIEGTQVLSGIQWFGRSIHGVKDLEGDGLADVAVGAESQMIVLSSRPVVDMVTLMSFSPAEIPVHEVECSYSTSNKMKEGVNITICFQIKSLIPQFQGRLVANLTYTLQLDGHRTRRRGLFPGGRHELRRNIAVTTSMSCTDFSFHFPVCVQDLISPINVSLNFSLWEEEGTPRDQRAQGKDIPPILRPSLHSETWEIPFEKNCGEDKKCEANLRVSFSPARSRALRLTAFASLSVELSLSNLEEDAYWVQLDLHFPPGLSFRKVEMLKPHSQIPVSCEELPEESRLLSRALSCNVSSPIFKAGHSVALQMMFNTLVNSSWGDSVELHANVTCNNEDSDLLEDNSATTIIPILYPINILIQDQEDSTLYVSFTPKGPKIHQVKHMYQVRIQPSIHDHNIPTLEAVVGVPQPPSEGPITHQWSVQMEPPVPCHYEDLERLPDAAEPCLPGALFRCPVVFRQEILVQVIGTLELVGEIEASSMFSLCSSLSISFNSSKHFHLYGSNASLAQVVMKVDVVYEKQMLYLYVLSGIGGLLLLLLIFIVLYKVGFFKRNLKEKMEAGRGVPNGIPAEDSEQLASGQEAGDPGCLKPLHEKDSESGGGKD
T1 sequence (P05362 whole entry, further chain): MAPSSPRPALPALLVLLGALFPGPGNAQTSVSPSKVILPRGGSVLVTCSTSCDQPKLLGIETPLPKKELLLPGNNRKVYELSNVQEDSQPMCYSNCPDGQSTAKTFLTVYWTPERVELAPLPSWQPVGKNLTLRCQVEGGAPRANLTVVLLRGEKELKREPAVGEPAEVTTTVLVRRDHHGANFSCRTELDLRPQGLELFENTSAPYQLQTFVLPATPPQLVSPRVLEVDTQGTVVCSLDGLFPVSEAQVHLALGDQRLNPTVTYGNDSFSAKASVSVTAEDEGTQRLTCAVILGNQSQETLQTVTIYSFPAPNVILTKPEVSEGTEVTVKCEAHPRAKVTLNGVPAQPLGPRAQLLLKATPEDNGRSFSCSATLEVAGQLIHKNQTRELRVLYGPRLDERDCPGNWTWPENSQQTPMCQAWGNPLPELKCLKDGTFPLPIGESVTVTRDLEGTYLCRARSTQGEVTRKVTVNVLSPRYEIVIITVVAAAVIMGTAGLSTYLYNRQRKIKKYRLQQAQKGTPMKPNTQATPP
T1 sequence (P05107 whole entry): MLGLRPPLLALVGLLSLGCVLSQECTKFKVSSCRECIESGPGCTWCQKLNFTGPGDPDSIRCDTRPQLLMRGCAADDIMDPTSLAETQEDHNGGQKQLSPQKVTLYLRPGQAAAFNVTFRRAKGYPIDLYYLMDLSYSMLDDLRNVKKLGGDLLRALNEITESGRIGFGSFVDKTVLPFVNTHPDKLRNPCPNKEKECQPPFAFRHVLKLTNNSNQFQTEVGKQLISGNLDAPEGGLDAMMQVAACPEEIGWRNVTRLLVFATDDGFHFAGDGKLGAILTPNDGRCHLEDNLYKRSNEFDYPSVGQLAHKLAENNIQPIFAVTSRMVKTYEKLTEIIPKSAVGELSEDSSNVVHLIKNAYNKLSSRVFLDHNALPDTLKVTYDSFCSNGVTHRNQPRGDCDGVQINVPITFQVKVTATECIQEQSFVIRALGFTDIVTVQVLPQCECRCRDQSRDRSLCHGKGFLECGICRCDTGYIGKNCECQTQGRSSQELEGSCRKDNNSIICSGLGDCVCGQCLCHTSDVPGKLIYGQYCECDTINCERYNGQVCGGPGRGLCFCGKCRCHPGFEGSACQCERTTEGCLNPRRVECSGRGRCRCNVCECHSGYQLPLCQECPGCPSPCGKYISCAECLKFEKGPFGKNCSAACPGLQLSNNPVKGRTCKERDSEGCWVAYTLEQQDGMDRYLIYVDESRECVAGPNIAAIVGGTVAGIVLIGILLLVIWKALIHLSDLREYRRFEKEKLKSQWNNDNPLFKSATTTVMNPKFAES

Structure (SMILES)	IC50 [1]	IC50 [2]
CC(=O)N1CCN(C(=O)/C=C/c2ccc(Sc3ccccc3C)c([N+](=O)[O-])c2)CC1	120 nM	
CN(CCC(=O)Nc1ccccc1Sc1ccc(Cl)cc1Cl)Cc1ccccc1	> 100000 nM	
O=C(/C=C/c1ccc(Sc2ccccc2NCCCN2CCOCC2)c(Cl)c1)N1CCOCC1	180 nM	
O=CN1CCN(Cc2ccccc2Sc2ccc(/C=C/C(=O)N3CCOCC3)cc2Cl)CC1	420 nM	
CCc1ccccc1Sc1ccc(/C=C/C(=O)N2CCN(C(C)=O)CC2)cc1[N+](=O)[O-]	65 nM	
O=C(/C=C/c1ccc(Sc2ccc(Cl)cc2Cl)c(Br)c1)NCCCN1CCCC1=O	650 nM	
O=C(/C=C/c1ccc(Sc2ccc(Cl)cc2Cl)c(Cl)c1)NCCCCCCO	590 nM	
O=C(/C=C/c1ccccc1Sc1ccc(Cl)cc1Cl)NCC1CCCO1 (centres undefined)	2100 nM	
O=C(/C=C/c1ccccc1Sc1ccc(Cl)cc1Cl)N1CCOCC1	1200 nM	
CN(C)CCC(=O)Nc1ccccc1Sc1ccc(Cl)cc1Cl	82000 nM	
O=C(/C=C/c1ccccc1Sc1ccc(Cl)cc1Cl)NCCc1ccccc1	> 100000 nM	
O=C(/C=C/c1ccc(Sc2ccc(Cl)cc2Cl)c(/C=C/C(=O)N2CCOCC2)c1)NCCCN1CCCC1=O	> 20000 nM	
O=C(/C=C/c1ccc(Sc2ccc(Cl)cc2Cl)c([N+](=O)[O-])c1)NCCCN1CCCC1=O	170 nM	
O=C(O)c1cc(/C=C/C(=O)N2CCOCC2)ccc1Sc1ccc(Cl)cc1Cl	> 20000 nM	
NC(=O)c1cc(/C=C/C(=O)N2CCOCC2)ccc1Sc1ccc(Cl)cc1Cl	> 20000 nM	
O=C(/C=C/c1ccc(Sc2ccc(Cl)cc2Cl)c(Cl)c1)N1CCOCC1	460 nM	
CC(=O)N1CCN(C(=O)/C=C/c2ccc(Sc3ccc(Cl)cc3Cl)c(/C=C/C(=O)N3CCOCC3)c2)CC1	18000 nM	
O=C(/C=C/c1ccccc1Sc1ccc(Cl)cc1Cl)N(CCO)CCO	2300 nM	
CC(=O)N1CCN(C(=O)/C=C/c2ccc(Sc3ccccc3C=O)c([N+](=O)[O-])c2)CC1	60 nM	
O=C(CCN1CCOCC1)Nc1ccccc1Sc1ccc(Cl)cc1Cl	12000 nM	
O=C(/C=C/c1ccccc1Sc1ccc(Cl)cc1Cl)NCCCn1ccnc1	960 nM	
O=C(O)CNC(=O)/C=C/c1ccccc1Sc1ccc(Cl)cc1Cl	3900 nM	

Structure (SMILES)	IC50 [1]	IC50 [2]
O=C(/C=C/c1ccccc1Sc1ccc(Cl)cc1Cl)N(Cc1ccccc1)Cc1ccc(Oc2ccccc2)cc1	> 100000 nM	
CC(=O)N1CCN(C(=O)/C=C/c2ccc(Sc3cccc(Cl)c3Cl)c([N+](=O)[O-])c2)CC1	100 nM	
O=C(/C=C/c1ccc(Sc2ccccc2/C=C/C(=O)N2CCOCC2)c(Cl)c1)N1CCOCC1	180 nM	
Nc1cc(/C=C/C(=O)NCCCN2CCCC2=O)ccc1Sc1ccc(Cl)cc1Cl	19000 nM	
O=C(O)/C=C/c1ccc(Sc2ccc(Cl)cc2Cl)c(Cl)c1	2600 nM	
O=C(O)/C=C/c1ccccc1Sc1ccc(Cl)cc1Cl	2600 nM	
O=C(/C=C/c1cccc(Sc2ccc(Cl)cc2Cl)c1)NCCCn1ccnc1	7000 nM	
O=C(/C=C/c1ccccc1Sc1ccc(Cl)cc1Cl)NCCCN1CCCC1=O	1600 nM	
O=C(/C=C/c1ccc(Sc2ccccc2CN2CCOCC2)c(Cl)c1)N1CCOCC1	150 nM	
O=C(/C=C/c1ccc(Sc2ccc(Cl)cc2Cl)c(/C=C/C(=O)N2CCOCC2)c1)N1CCOCC1	> 20000 nM	
CN1CCN(C(=O)/C=C/c2ccc(Sc3ccc(Cl)cc3Cl)c(Cl)c2)CC1	1100 nM	
CC(=O)N1CCN(C(=O)/C=C/c2ccc(Sc3ccccc3C(N)=O)c([N+](=O)[O-])c2)CC1	16200 nM	
CC(=O)N1CCN(C(=O)/C=C/c2ccc(Sc3ccc(Cl)cc3Cl)c(Cl)c2)CC1	140 nM	
O=C(/C=C/c1ccc(Sc2ccc(Cl)cc2Cl)c(Cl)c1)NCCCn1ccnc1	1400 nM	
O=C(/C=C/c1cccc(Sc2ccc(Cl)cc2Cl)c1)N(CCO)CCO	15000 nM	
Cc1cccc2sc(NC(=O)/C=C/c3ccccc3Sc3ccc(Cl)cc3Cl)nc12	> 100000 nM	
O=C(/C=C/c1ccccc1Sc1ccc(Cl)cc1Cl)NCCCCCCO	100000 nM	
O=Cc1cc(/C=C/C(=O)N2CCOCC2)ccc1Sc1ccc(Cl)cc1Cl	610 nM	
CN1CCN(CCC(=O)Nc2ccccc2Sc2ccc(Cl)cc2Cl)CC1	33000 nM	
O=C(/C=C/c1ccc(Sc2ccc(Cl)cc2Cl)c(Cl)c1)NCCO	920 nM	
CC(=O)N1CCN(C(=O)/C=C/c2ccc(Sc3ccc(Cl)cc3Cl)c([N+](=O)[O-])c2)CC1	90 nM	
CC(=O)N1CCN(C(=O)/C=C/c2ccc(Sc3ccccc3N)c([N+](=O)[O-])c2)CC1	620 nM	

Structure (SMILES)	IC50 [1]	IC50 [2]
O=C(CCN1CCCC1)Nc1ccccc1Sc1ccc(Cl)cc1Cl	> 10000 nM	
CC(=O)N1CCN(C(=O)/C=C/c2ccc(Sc3ccccc3C(C)(C)C)c([N+](=O)[O-])c2)CC1	530 nM	
Nc1ccc(Sc2ccc(Cl)cc2Cl)c(Cl)c1		1700 nM
O=C(/C=C/c1ccc(Sc2ccc(Cl)cc2Cl)c(Cl)c1)N(CCO)CCO	710 nM	
O=C(/C=C/c1cccc(Sc2ccc(Cl)cc2Cl)c1)N1CCOCC1	16500 nM	
CCCN(CCC)CCC(=O)Nc1ccccc1Sc1ccc(Cl)cc1Cl	61000 nM	
CC(=O)N1CCN(C(=O)/C=C/c2ccc(Sc3ccccc3N(C)C)c([N+](=O)[O-])c2)CC1	310 nM	
O=C(/C=C/c1cccc(Sc2ccc(Cl)cc2Cl)c1)NCCCCCCO	9800 nM	
CN(C)CCN1c2ccccc2Sc2ccc(Cl)cc21 [CHOLRPHENETHAZINE]		28000 nM
Clc1ccc(Sc2ccccc2NCCCN2CCOCC2)c(Cl)c1	140 nM	
O=C(/C=C/c1ccc(Sc2ccc(Cl)cc2Cl)c(NCCCN2CCOCC2)c1)NCCCN1CCCC1=O	15500 nM	
O=C(/C=C/c1ccc(Sc2ccc(Cl)cc2Cl)c(Cl)c1)NCCCN1CCCC1=O	550 nM	
O=C(/C=C/c1cccc(Sc2ccc(Cl)cc2Cl)c1)NCCCN1CCCC1=O	4500 nM	
O=C(/C=C/c1ccccc1Sc1ccc(Cl)cc1Cl)NCCO	3300 nM	
O=C(/C=C/c1ccc(Sc2ccccc2CN2CCN(Cc3ccc4c(c3)OCO4)CC2)c(Cl)c1)N1CCOCC1	100 nM	
CN(C)CCNCc1ccccc1Sc1ccc(Cl)cc1Cl	5600 nM	
O=C(/C=C/c1ccc(Sc2ccc(Cl)cc2Cl)c(Cl)c1)N1CCN(c2ccccn2)CC1	750 nM	
CC(=O)N1CCN(C(=O)/C=C/c2ccc(Sc3ccccc3Cl)c([N+](=O)[O-])c2)CC1	110 nM	
O=C(/C=C/c1ccccc1Sc1ccc(Cl)cc1Cl)NCC(O)CO (centres undefined)	3800 nM	
CCOC(=O)CN(C)Cc1ccccc1Sc1ccc(/C=C/C(=O)N2CCOCC2)cc1Cl	260 nM	
